The text below walks through data of patent US20070248633A1, “COMPOSITIONS CONTAINING A HYDROXYLATED DIPHENYLMETHANE COMPOUND, METHODS OF USE” (L'OREAL, priority 2006, published 2007).

A short description of the data set: Tests of solubilization of a hydroxylated diphenylmethane compound of formula (I) in solubilizers. Type of data set: physicochemical. Particulars: for % max solubility of the hydroxylated diphenylmethane compound of formula (I): optionally heated to 45° C., stirred one hour. The procedure:
The compound Phenylethylbenzendiol marketed under the name Symwhite® by Symrise is used as hydroxylated diphenylmethane compound of formula (I).
This compound is weighed and placed in a sealed specimen tube.
Several solubilizers are tested: 10 ml of solubilizer are placed in a beaker and the compound Phenylethylbenzendiol is added mg per mg. The suspension, optionally heated to 45° C., is stirred by magnetic stirring for one hour.
The dissolution or non-dissolution of the hydroxylated diphenylmethane compound of formula (I), and its variation over time are then monitored.
The non-solubility of the hydroxylated diphenylmethane compound of formula (I) in the solubilizer is macroscopically characterized by a precipitate or just a cloudy solution, and microscopically by the presence of crystals.

Bounds are passed on as bounds.

For `CC(c1ccccc1)c1ccc(O)cc1O` (centres unmarked) [4-(1-phenylethyl)-1,3-benzenediol], the amount solubilized result by setting is: (solubilizer: 2-octyldodecanol) “more than 20 % by weight”; (solubilizer: Dicaprylyl carbonate) “more than 20 % by weight”; (solubilizer: dimethyl isosorbide) “more than 20 % by weight”; (solubilizer: isopropyl N-lauroylsarcosinate (remainder of the solution consisting of the solubilizer)) “up to 42 % by weight”; (solubilizer: octyl methoxycinnamate) “more than 20 % by weight”. Moreover, the “% max solubility of the hydroxylated diphenylmethane compound of formula (I)” value (“% max solubility” below) (solvent: 2-Octyldodecanol (EUTANOL G from COGNIS)) came out at 22.52%; the “% max solubility” value (solvent: Apricot oil (APRICOT KERNEL OIL from DESERT WHALE)) worked out at 10.00%; the “% max solubility” value (solvent: Apricot oil (APRICOT KERNEL OIL from DESERT WHALE), listed as hydroxylated diphenylmethane compound (I)) is on record as ≤ 10%; the “% max solubility” value (solvent: Dicaprylyl carbonate (CETIOL CC from COGNIS)) amounted to 26.74%; the “% max solubility” value (solvent: Dimethyl isosorbide (ARLASOLVE DMI from UNIQEMA)) amounted to 31.30%; the “% max solubility” value (solvent: Hydrogenated isoparaffin (PARLEAM from NOF CORPORATION), paraffin oil) is given as “not soluble”. For the same molecule, the “% max solubility” value reads like this: (solvent: Hydrogenated isoparaffin (PARLEAM from NOF CORPORATION), paraffin oil, listed as hydroxylated diphenylmethane compound (I)) “does not make it possible to solubilize”; (solvent: Isopropyl N-lauroylsarcosinate (ELDEW SL 205 from AJINOMOTO)) 42.00%; (solvent: Octyl methoxycinnamate (PARSOL MCX from GIVAUDAN (DSM Nutritional Products))) 26.00%.
